Experimental data published in US8889919B2, “Cyclic compound, process for production of the cyclic compound, radiation-sensitive composition, and method for formation of resist pattern” (Mitsubishi Gas Chemical Company, Inc., priority 2009, dated 2014).

Assay: Solubility of compound in safety solvent
Type: physicochemical
Conditions: for Solubility in CHN: solvent cyclohexanone (CHN); for Solubility in PGME: solvent propylene glycol monomethyl ether (PGME)
Method: (1) Solubility of Compound in Safety Solvent
The compounds obtained in Synthesis Examples 1 to 6 and Synthesis 1 to 4 were evaluated for the solubility in propylene glycol monomethyl ether (PGME) and cyclohexanone (CHN).
B: 1.0 wt %≦dissolved amount<4.0 wt %
C: dissolved amount<1.0 wt %

SMILES | Solubility in CHN | Solubility in PGME
CC(C)c1ccc(C2c3cc(c(O)cc3O)C(c3ccc(C(C)C)cc3)c3cc(c(O)cc3O)C(c3ccc(C(C)C)cc3)c3cc(c(O)cc3O)C(c3ccc(C(C)C)cc3)c3cc2c(O)cc3O)cc1 (centres unmarked) [CR-1A] | A (4.0 wt %≦amount) | B (1.0 wt %≦dissolved amount<4.0 wt %)
CC(C)Cc1ccc(C2c3cc(c(O)cc3O)C(c3ccc(CC(C)C)cc3)c3cc(c(O)cc3O)C(c3ccc(CC(C)C)cc3)c3cc(c(O)cc3O)C(c3ccc(CC(C)C)cc3)c3cc2c(O)cc3O)cc1 (centres unmarked) [CR-2A] | B (1.0 wt %≦dissolved amount<4.0 wt %) | C (dissolved amount<1.0 wt %)
Oc1cc(O)c2cc1C(c1ccc(-c3ccccc3)cc1)c1cc(c(O)cc1O)C(c1ccc(-c3ccccc3)cc1)c1cc(c(O)cc1O)C(c1ccc(-c3ccccc3)cc1)c1cc(c(O)cc1O)C2c1ccc(-c2ccccc2)cc1 (centres unmarked) [CR-3A] | A (4.0 wt %≦amount) | C (dissolved amount<1.0 wt %)
Oc1cc(O)c2cc1C(c1ccc(C3CCCCC3)cc1)c1cc(c(O)cc1O)C(c1ccc(C3CCCCC3)cc1)c1cc(c(O)cc1O)C(c1ccc(C3CCCCC3)cc1)c1cc(c(O)cc1O)C2c1ccc(C2CCCCC2)cc1 (centres unmarked) [CR-4A] | A (4.0 wt %≦amount) | B (1.0 wt %≦dissolved amount<4.0 wt %)
